Experiments:
Format in all cases: in vivo
[1] = tested on: H22 liver subcutaneous transplanted tumor; test: Mouse model of H22 liver subcutaneous transplanted tumor; conditions: 20 mg/kg injected intraperitoneally 14 days (positive drug)
Description: (§1) The method was as follows:
Experimental procedure: H22 hepatoma cell suspension was adjusted to 1×10^7/mL after dilution and counting with normal saline, and 0.2 mL per mouse was inoculated on the back of the mice. After 24 hours, the mice were weighed and administered drug at a dose of 0.1 mL/10 g once a day, wherein the mice in the solvent control group and the treatment groups were administered 0.9% sodium chloride solution and the compound of the present invention, respectively, for 14 days, and the mice in the CTX group were injected intraperitoneally for 14 days. The mice were weighed after 14 days. The animals were executed and the tumor blocks were removed and weighed separately. The tumor inhibition rate was calculated according to the following formula: tumor inhibition rate (%)=(1−average tumor weight in a treatment group/average tumor weight in the solvent control group)×100%.

[2] = tested on: mouse model of focal segmental glomerulosclerosis; test: Mouse model of focal segmental glomerulosclerosis (adriamycin)
Description: as §1
Each mouse in the model group, the treatment groups and the positive control group was injected once into the tail vein with adriamycin at a dose of 8 mg/kg, and each mouse in the control group was injected once into the tail vein with saline at the same dose. The mice in the control group and model group were administered equal amount of saline by gavage for 6 weeks, and the mice in other group were administered corresponding compound in doses by gavage at a fixed time each day for 6 weeks after modelling with adriamycin. The body weights were recorded weekly and urine samples were collected.
Collection of urine samples: animals were placed in separate metabolic cages by group on days 0, 7, 14, 21, 28, 35, and 42 after modelling, with free access to water and no access to food, and urine samples were collected from each group of mice.
Determination of urine protein level using Coomassie brilliant blue (CBB) method: urine protein level was determined by urine protein quantitative test kit (Nanjing Jiancheng Bioengineering Institute). CBB working solution was prepared according to the kit instructions. 0.05 mL of each urine sample was mixed with 3 mL of CBB working solution, the mixture was allowed to stand for 5 min, and the absorbance value of each sample was determined at 595 nm. The urine protein levels samples of each group was calculated according to the protein standardization formula: urine protein level (mg/L)=(measured OD−blank OD)/(standard OD−blank OD)×563 mg/L.
Collection of serum samples: orbital blood from each mouse was collected in an EP tube, placed at 37° C. for 20 minutes, and centrifuged to obtain an upper layer of serum.
Collection of plasma samples: orbital blood from each mouse was collected in an anticoagulation tube, mixed well and stored at 4° C. for later use.
Determination of urea nitrogen level in plasma by diacetyl monoxime method: urea nitrogen level was determined by using blood urea nitrogen (BUN) test kit (Nanjing Jiancheng Bioengineering Institute). According to the kit instructions, 0.05 mL of anticoagulated plasma sample was mixed with 1 mL of oxime solution and 1 mL of acid working solution, and the mixtures were placed in a boiling water bath for 15 minutes. A UV-visible spectrophotometer was used to determine the absorbance values of each tube at a wavelength of 520 nm. Urea nitrogen levels in plasma samples of each group were calculated according to the formula: Urea nitrogen level (mmol/L)=(measured OD value−blank OD value)/(standard OD value−blank OD value)×10 mmol/L.
Collection of kidney tissue samples: kidneys were taken from mice after anesthesia, cut horizontally, and the upper part of the kidneys was embedded in OCT embedding box, sliced with frozen slicer and stored at −20° C.
H&E staining was used to assess pathological glomerular changes, and the procedure was as follows: frozen sections were fixed with 95% ethanol for 2 minutes, hydrated with distilled water, stained with hematoxylin for 3 minutes, washed with distilled water for 3 minutes, differentiated using 1% hydrochloric acid in ethanol for 10 seconds, washed with distilled water for 30 seconds, returned to blue in running water for 5 minutes, washed in distilled water for 30 seconds, stained with eosin for 30 seconds, washed with 75% and 85% ethanol for 20 seconds each, dehydrated rapidly with 95% ethanol for 1 minute, dehydrated with anhydrous ethanol, cleared to transparency in xylene (1 minute×3), and finally sealed with neutral balsam and photographed with a biomicroscope.

[3] = tested on: mouse model of renal fibrosis (UUO); test: Mouse model of renal fibrosis (unilateral ureteral obstruction, UUO)
Description: The therapeutic effect of the compounds of the present invention (as exemplified by Compound 1-1 obtained in Example 1) on renal fibrosis was determined using a mouse model of renal fibrosis. The method was as follows:
Grouping of animals: male C57BL/6J mice aged 8 weeks were given adaptive feeding for 3 days and grouped into a sham operation group, a sham operation-treatment group, a Unilateral ureteral obstruction (UUO) model group, a low-dose (10 mg/kg) treatment group, a medium-dose (25 mg/kg) treatment group, a high-dose (50 mg/kg) treatment group, a medium-dose (25 mg/kg) treatment group of indole analogue 3-[(1-methyl-1H-indole-2-carbonyl)amino]propionic acid disclosed in CN2019107285315, and a positive control group of losartan (50 mg/kg), with 10 animals in each group. Mice in the model and the treatment groups were anesthetized by intraperitoneal injection of 0.5% sodium pentobarbital at a dose of 0.1 mL/10 g. The mice were fixed on the operating table and cut open in layers from the right side of the mid-abdomen to locate the left kidney, and the ends of the ureter were ligated, while the ureter was cut off between the two ligations; the sham operation group was operated as described above and the ligations were not performed. Post-operative organs were repositioned, sutured, and sterilized with iodophor after suturing was completed. Immediately after operation, the drug was administered by gavage once daily for 14 days. Urine sample collection: animals were placed in separate metabolic cages by group on days 0, 5, 10 and 14 after modelling, without food or water, and urine samples were collected from each group of mice.
The protein levels in urine were determined using Coomassie brilliant blue (CBB) method by using urine protein quantitative test kit (Nanjing Jiancheng Bioengineering Institute). CBB working solution was prepared according to the kit instructions. 0.05 mL of each urine sample was mixed with 3 mL of CBB working solution, the mixture was left to stand for 5 min, and the absorbance value of each sample was determined at 595 nm. The protein levels in each group of urine samples were calculated according to the protein standardization formula: urine protein levels (mg/L)=(measured OD−blank OD)/(standard OD−blank OD)×563 mg/L.
Collection of serum sample: orbital blood from each mouse was collected in an EP tube, placed at 37° C. for 20 minutes, and centrifuged to obtain the upper layer of serum.
Collection of plasma sample: orbital blood from each mouse was collected in an anticoagulation tube, mixed well and stored at 4° C. for later use.
Determination of creatinine levels in urine and serum by the picric acid colorimetric method: creatinine levels in urine and serum were determined by using the creatinine test kit (Nanjing Jiancheng Bioengineering Institute). According to the kit instructions, 1.5 mL of urine sample or serum sample and 0.5 mL of picric acid solution, 0.5 mL of 0.5 mol/L sodium hydroxide solution were mixed, heated in water bath at 37° C. for 10 minutes. The absorbance value of each sample was determined using a UV spectrophotometer at a wavelength of 510 nm. Creatinine levels in samples of each group were calculated according to the formula: creatinine level (μmol/L) in serum or urine=(measured OD value−blank OD value)/(standard OD value−blank OD value)×50 μmol/L×(dilution ratio 201).
Determination of urea nitrogen level in plasma by diacetyl monoxime method: urea nitrogen level was determined was determined by using blood urea nitrogen (BUN) test kit (Nanjing Jiancheng Bioengineering Institute). According to the kit instructions, 0.05 mL of anticoagulated plasma samples were mixed with 1 mL of oxime solution and 1 mL of acid working solution, and the mixtures were placed in a boiling water bath for 15 min. A UV-visible spectrophotometer was used to determine the absorbance values of each tube at a wavelength of 520 nm. […]

[4] = tested on: rat model of pulmonary hypertension induced by monocrotaline; test: Rat model of pulmonary hypertension induced by monocrotaline
Description: The preventive effect of the compounds of the present invention (as exemplified by compound 1-1 obtained in Example 1) on pulmonary hypertension was determined using a rat model of pulmonary hypertension induced by monocrotaline. The method was as follows:
Grouping of animals: 70 male SD rats with weigh of 200±20 g were randomly divided into 7 groups, i.e., a normal control group, a monocrotaline (MCT) model group, a treatment group of low-dose compound 1-1 (10 mg/kg) (MCT), a treatment group of medium-dose compound 1-1 (25 mg/kg) (MCT), a treatment group of high-dose compound 1-1 (50 mg/kg) (MCT), a treatment group of medium-dose indole analogue 3-[(1-methyl-1H-indole-2-carbonyl)amino]propionic acid (25 mg/kg) disclosed in CN2019107285315 (MCT), and a sildenafil group (150 mg/kg) (MCT), with 10 rats in each group.
Experimental procedure: MCT was prepared as a 2% solution with a mixture of ethanol and saline (2:8) and the solution was injected intraperitoneally once at a dose of 60 mg/kg body weight in all groups except the normal control group. Each rat in the normal control group was injected intraperitoneally once with a solution prepared from ethanol and saline in a volume ratio of 2:8. Compound 1-1 obtained in Example 1, the indole analogue 3-[(1-methyl-1H-indole-2-carbonyl)amino]propionic acid disclosed in CN2019107285315, or the positive drug sildenafil was administered by gavage to the mice in the treatment groups on the day of modelling, and saline was administered by gavage to the mice in the normal control group and the MCT model group. The drugs were administered by gavage once a day for 28 days until 12 hours before test.
Determination of hemodynamic indexes: a polyethylene plastic microcatheter filled with heparin solution (0.9% sodium chloride solution+10 U/mL heparin) was inserted into the right external jugular vein of a rat, and the other end of the microcatheter was connected to a miniature pressure transducer to monitor the pressure changes. […] After 30 minutes of stabilization, the POWERLAB multi-channel intelligent physiological signal acquisition and recording system was applied to acquire, record and analyze the indexes.
Determination of the index of right ventricular (RV) hypertrophy: at the end of the experiment, the heart was removed by dissection of the thorax and the atrial tissue was cut off. The right ventricle (RV), left ventricle (LV), and interventricular septum (S) were isolated along the edge of the interventricular septum, and the RV, LV, and S were weighed after absorbing water with filter paper and the ratio RV/(LV+S) was used to reflect the degree of RV hypertrophy.
Pathological examination of pulmonary vessels: tissue blocks were taken from the same site in the lower lobe of the right lung and fixed in 10% neutral formaldehyde (pH=7.4) for 2 days. Routine paraffin embedding, serial sections, H&E staining and light microscopy were performed to observe morphological changes in small pulmonary arteries.
Effect on inflammatory factors in lung tissue: Lung tissues were collected from each group of rats, homogenates of lung tissue were prepared and centrifuged and supernatants were collected. The protein level in the supernatant was determined by Coomassie brilliant blue method, and tumor necrosis factor-α (TNF-α) in rats was determined by an ELISA kit (Beijing 4A Biotech Co., Ltd.). […]

[5] = gavage once daily 14 days, not statistically different (P>0.05)
[6] = MCT + sildenafil (150 mg/kg) gavage 28 days

## O=P1(N(CCCl)CCCl)NCCCO1 (stereo not drawn) [CTX, cyclophosphamide, reference compound]
[1]
  tumor inhibition rate: 60.3%

## CCCCC1=NC2(CCCC2)C(=O)N1Cc1ccc(-c2ccccc2-c2nnn[nH]2)cc1 [irbesartan, reference compound]
[2]; 50 mg/kg gavage, 6 weeks
  serum urea nitrogen level reduced compared with the model group: 9.0%
[2]; 50 mg/kg gavage, 6 weeks, model 16.08±0.23
  serum urea nitrogen level: 14.63 ± 0.19 mmol/L
[2]; 50 mg/kg gavage, 6 weeks, model 547.0±106.3
  urine protein level: 382 ± 80.8 mg/L
[2]; FIG. 1, control compound 25 mg/kg, irbesartan 50 mg/kg
  glomerular lesions, renal tissue pathology (H&E, PAS, Sirius red stain): shows the same effect
[2]; gavage daily 6 weeks, compound 1-1 10, 25, 50 mg/kg, control compound 25 mg/kg, irbesartan 50 mg/kg
  body weight compared with the FSGS group: increased body weights

## CCCCc1nc(Cl)c(CO)n1Cc1ccc(-c2ccccc2-c2nn[nH]n2)cc1 [losartan, reference compound]
[3]; 50 mg/kg gavage 14 days
  creatinine level reduced compared with the model group: 19.0%
  urea nitrogen level reduced compared with the model group: 29.7%
  urine protein level reduced compared with the model group: 46.6%
[3]; 50 mg/kg gavage 14 days, model 17.56±0.48
  urea nitrogen level: 12.35 ± 0.37 mmol/L
[3]; 50 mg/kg gavage 14 days, model 32.48±0.87
  serum creatinine level: 26.32 ± 1.12 µmol/L
[3]; 50 mg/kg gavage 14 days, model 888.5±264.8
  urine protein level: 475 ± 112 mg/L
[3]; FIG. 2, control compound 25 mg/kg, losartan 50 mg/kg
  extent of renal fibrosis, pathological staining (H&E, Masson, Sirius red): shows the same effect
[3]; [5]
  body weight compared with the UUO model group: slight increase in body weight
  kidney weight compared with the UUO model group: slight decrease in kidney weight

## CCCc1nn(C)c2c(=O)[nH]c(-c3cc(S(=O)(=O)N4CCN(C)CC4)ccc3OCC)nc12 [sildenafil, reference compound]
[4]; [6]
  RV/(LV + S): 0.32 ± 0.02
  TNF-α in lung tissue: 0.600 ± 06 g/g protein
[4]; MCT + sildenafil (150 mg/kg) gavage once a day 28 days
  mPAP: 23.6 ± 3.4 mmHg

Source: US12692232B2, “Indole carboxamide compound, preparation therefor and use thereof” (NANJING RUISHUNING MEDICAL TECHNOLOGY CO., LTD., priority 2021, dated 2026)
